In doi:10.1101/2021.09.30.462449v1 (biorxiv, 2021):

Legend:
Test in all cases: biochemical
Conditions in all cases: read-out: % inhibition mean (Z'Lyte)
CLK3 = CLK3 (Homo sapiens, UniProt P49761)
FLT3 D835Y = FLT3 D835Y (Homo sapiens, UniProt P36888, D835Y)
HCK = HCK (Homo sapiens, UniProt P08631)
CAMK2B (CaMKII beta) = CAMK2B (CaMKII beta) (Homo sapiens, UniProt Q13554)
IRAK4 = IRAK4 (Homo sapiens, UniProt Q9NWZ3)
PRKCQ (PKC theta) = PRKCQ (PKC theta) (Homo sapiens, UniProt Q04759)
DYRK3 = DYRK3 (Homo sapiens, UniProt O43781)
Sequence of DYRK3 (O43781 whole entry): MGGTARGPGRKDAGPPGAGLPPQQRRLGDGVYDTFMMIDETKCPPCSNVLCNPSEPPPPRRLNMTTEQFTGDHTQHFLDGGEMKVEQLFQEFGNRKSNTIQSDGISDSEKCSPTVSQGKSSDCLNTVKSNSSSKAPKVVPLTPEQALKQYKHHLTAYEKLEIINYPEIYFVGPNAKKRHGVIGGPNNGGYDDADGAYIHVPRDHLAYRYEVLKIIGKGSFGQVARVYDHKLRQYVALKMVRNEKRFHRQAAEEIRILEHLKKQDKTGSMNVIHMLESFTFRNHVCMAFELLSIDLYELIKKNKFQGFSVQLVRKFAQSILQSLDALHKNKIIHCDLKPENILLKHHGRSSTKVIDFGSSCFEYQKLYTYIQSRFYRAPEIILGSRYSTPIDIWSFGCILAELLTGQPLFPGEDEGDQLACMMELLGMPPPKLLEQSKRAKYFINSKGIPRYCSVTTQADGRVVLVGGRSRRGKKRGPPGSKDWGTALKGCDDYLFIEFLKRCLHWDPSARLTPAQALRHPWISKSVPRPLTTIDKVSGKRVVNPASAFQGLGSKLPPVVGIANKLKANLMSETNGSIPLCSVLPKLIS

HIPK3 (YAK1) = HIPK3 (YAK1) (Homo sapiens, UniProt Q9H422)
AKT3 (PKB gamma) = AKT3 (PKB gamma) (Homo sapiens, UniProt Q9Y243)
NEK9 = NEK9 (Homo sapiens, UniProt Q8TD19)
MAPK10 (JNK3) = MAPK10 (JNK3) (Homo sapiens, UniProt P53779)
STK22B (TSSK2) = STK22B (TSSK2) (Homo sapiens, UniProt Q96PF2)
MAPKAPK5 (PRAK) = MAPKAPK5 (PRAK) (Homo sapiens, UniProt Q8IW41)
Sequence of MAPKAPK5 (PRAK) (Q8IW41 whole entry): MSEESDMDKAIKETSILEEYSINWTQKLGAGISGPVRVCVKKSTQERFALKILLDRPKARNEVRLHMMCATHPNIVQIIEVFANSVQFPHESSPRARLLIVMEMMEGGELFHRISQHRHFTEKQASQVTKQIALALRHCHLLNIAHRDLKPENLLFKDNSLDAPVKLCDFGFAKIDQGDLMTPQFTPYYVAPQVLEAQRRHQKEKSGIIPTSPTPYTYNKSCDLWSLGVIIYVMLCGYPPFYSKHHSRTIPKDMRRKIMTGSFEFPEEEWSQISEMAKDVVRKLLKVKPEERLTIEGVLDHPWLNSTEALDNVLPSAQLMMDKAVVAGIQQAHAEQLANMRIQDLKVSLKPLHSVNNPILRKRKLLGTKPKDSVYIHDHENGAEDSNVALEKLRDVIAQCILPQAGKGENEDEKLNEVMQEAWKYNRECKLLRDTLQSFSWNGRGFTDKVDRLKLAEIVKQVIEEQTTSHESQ

MKNK1 (MNK1) = MKNK1 (MNK1) (Homo sapiens, UniProt Q9BUB5)
CSNK1A1 (CK1 alpha 1) = CSNK1A1 (CK1 alpha 1) (Homo sapiens, UniProt P48729)
STK24 (MST3) = STK24 (MST3) (Homo sapiens, UniProt Q9Y6E0)
DYRK4 = DYRK4 (Homo sapiens, UniProt Q9NR20)
SRC N1 = SRC N1 (Homo sapiens, UniProt P12931)
CAMK2D (CaMKII delta) = CAMK2D (CaMKII delta) (Homo sapiens, UniProt Q13557)
SBK1 = SBK1 (Homo sapiens, UniProt Q52WX2)
Sequence of SBK1 (Q52WX2 whole entry): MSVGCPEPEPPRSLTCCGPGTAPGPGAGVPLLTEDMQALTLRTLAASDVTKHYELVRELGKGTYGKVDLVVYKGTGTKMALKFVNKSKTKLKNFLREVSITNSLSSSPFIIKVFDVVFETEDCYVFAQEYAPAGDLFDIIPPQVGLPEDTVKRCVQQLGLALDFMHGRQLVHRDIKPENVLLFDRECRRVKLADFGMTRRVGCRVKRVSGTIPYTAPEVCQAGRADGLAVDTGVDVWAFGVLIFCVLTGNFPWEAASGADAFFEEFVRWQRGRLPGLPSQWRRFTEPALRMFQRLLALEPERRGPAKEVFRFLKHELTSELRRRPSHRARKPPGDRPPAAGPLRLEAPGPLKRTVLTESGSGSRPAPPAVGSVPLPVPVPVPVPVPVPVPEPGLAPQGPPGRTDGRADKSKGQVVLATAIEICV

PHKG1 = PHKG1 (Homo sapiens, UniProt Q16816)
INSR = INSR (Homo sapiens, UniProt P06213)
Sequence of INSR (P06213 whole entry): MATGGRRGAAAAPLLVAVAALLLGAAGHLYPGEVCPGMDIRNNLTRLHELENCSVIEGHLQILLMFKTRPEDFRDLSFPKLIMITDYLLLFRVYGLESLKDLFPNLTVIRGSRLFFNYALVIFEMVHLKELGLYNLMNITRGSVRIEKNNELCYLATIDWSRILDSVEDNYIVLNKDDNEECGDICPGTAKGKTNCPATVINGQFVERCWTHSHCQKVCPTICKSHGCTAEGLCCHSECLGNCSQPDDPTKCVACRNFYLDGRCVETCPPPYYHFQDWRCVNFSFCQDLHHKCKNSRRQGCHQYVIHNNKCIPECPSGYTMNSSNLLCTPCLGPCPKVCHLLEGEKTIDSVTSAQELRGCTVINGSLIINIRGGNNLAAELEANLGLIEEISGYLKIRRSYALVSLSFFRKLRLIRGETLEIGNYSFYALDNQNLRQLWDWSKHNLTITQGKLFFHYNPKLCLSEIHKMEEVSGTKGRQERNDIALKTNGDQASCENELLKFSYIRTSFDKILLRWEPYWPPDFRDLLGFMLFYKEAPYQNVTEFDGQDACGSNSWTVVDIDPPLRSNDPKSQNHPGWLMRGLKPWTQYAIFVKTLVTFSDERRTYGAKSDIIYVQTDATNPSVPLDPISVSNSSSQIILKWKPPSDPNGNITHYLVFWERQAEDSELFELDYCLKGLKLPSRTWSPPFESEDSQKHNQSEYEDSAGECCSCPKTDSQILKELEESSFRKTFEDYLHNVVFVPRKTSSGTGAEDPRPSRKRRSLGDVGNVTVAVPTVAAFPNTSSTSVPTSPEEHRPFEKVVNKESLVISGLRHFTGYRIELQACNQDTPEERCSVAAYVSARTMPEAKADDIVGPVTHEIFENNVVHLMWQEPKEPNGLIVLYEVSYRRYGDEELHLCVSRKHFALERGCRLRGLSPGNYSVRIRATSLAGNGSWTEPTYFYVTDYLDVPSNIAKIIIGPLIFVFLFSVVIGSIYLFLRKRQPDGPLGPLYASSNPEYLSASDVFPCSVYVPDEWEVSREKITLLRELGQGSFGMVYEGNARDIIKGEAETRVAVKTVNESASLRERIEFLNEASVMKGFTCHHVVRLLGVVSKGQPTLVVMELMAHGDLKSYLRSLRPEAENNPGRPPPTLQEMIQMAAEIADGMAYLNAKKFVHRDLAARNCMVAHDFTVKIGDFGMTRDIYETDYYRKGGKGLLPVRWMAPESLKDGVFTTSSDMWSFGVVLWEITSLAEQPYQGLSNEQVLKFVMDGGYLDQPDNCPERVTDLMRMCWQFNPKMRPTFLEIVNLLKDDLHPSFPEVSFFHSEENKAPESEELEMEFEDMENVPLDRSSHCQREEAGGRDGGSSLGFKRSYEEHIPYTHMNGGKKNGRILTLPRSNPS

DAPK3 (ZIPK) = DAPK3 (ZIPK) (Homo sapiens, UniProt O43293)
Sequence of DAPK3 (ZIPK) (O43293 whole entry): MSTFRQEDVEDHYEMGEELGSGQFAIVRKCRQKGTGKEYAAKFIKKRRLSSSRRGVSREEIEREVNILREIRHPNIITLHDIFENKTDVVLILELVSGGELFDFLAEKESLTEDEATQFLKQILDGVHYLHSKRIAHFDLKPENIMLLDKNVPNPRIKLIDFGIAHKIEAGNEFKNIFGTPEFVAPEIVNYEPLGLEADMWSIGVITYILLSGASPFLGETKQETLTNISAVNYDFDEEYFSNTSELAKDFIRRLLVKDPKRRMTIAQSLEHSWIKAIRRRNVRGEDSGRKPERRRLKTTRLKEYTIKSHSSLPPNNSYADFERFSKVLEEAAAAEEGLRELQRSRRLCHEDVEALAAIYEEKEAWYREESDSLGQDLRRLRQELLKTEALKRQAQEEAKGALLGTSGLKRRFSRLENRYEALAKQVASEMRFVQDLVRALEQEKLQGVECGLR

AXL = AXL (Homo sapiens, UniProt P30530)
Sequence of AXL (P30530 whole entry): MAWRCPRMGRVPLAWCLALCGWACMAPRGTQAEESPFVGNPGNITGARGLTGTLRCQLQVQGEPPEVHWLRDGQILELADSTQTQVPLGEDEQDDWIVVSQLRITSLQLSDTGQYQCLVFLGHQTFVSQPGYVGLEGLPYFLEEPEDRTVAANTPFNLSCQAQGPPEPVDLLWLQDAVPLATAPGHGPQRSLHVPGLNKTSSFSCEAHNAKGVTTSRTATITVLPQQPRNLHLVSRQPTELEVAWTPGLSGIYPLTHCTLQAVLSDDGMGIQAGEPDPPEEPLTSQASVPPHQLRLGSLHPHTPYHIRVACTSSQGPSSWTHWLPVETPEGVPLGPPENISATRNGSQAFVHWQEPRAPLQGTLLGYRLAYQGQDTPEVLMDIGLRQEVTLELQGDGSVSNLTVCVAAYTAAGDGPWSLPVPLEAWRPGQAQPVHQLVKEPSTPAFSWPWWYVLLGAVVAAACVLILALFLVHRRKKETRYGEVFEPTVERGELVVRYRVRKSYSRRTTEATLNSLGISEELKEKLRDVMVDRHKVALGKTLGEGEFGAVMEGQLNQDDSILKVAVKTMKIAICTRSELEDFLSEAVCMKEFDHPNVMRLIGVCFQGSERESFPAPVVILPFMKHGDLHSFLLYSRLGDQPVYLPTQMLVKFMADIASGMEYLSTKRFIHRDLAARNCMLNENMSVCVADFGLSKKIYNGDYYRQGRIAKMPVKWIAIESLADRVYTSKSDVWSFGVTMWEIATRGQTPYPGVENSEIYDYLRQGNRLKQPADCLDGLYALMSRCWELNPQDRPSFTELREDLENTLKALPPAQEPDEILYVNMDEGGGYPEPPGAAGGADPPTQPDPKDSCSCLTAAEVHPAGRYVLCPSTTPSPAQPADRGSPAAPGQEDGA

DYRK1A = DYRK1A (Homo sapiens, UniProt Q13627)
RPS6KA3 (RSK2) = RPS6KA3 (RSK2) (Homo sapiens, UniProt P51812)
MET (cMet) Y1235D = MET (cMet) Y1235D (Homo sapiens, UniProt P08581, Y1235D)
AKT1 (PKB alpha) = AKT1 (PKB alpha) (Homo sapiens, UniProt P31749)

Sequence of HCK (P08631 whole entry): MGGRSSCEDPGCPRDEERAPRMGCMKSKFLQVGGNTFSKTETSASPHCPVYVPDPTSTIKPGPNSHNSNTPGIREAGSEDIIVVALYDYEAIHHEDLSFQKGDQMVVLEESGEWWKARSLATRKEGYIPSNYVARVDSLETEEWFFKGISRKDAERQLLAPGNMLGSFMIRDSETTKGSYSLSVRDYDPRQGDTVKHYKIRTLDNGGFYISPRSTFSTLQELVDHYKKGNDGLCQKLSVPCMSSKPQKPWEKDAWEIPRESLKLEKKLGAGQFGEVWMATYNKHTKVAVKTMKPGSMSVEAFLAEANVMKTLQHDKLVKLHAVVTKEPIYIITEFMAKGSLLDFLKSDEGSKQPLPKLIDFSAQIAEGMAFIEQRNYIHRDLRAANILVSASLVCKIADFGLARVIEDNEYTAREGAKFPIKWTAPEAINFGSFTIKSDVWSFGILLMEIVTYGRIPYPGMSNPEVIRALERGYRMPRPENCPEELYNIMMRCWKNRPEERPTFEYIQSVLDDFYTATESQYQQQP

Structure (SMILES): COc1ccc2nc3cc(Cl)ccc3c(Nc3cc(CN4CCCC4)c(O)c(CN4CCCC4)c3)c2n1 [Pyronaridine, 4-[(7-Chloro-2-methoxybenzo[b][1,5]naphthyridin-10-yl)amino]-2,6-bis(1-pyrrolidinylmethyl)phenol phosphate (1:4)]
- inhibition at 1 µM (CLK3): -3%
- inhibition at 1 µM (FLT3 D835Y): 2%
- inhibition at 1 µM (HCK): 4%
- inhibition at 1 µM (CAMK2B (CaMKII beta)): 1%
- inhibition at 1 µM (IRAK4): -6%
- inhibition at 1 µM (PRKCQ (PKC theta)): 8%
- inhibition at 1 µM (DYRK3): 1%
- inhibition at 1 µM (HIPK3 (YAK1)): -2%
- inhibition at 1 µM (AKT3 (PKB gamma)): 7%
- inhibition at 1 µM (NEK9): 0%
- inhibition at 1 µM (MAPK10 (JNK3)): 0%
- inhibition at 1 µM (STK22B (TSSK2)): -2%
- inhibition at 1 µM (MAPKAPK5 (PRAK)): 3%
- inhibition at 1 µM (MKNK1 (MNK1)): 4%
- inhibition at 1 µM (CSNK1A1 (CK1 alpha 1)): 5%
- inhibition at 1 µM (STK24 (MST3)): 4%
- inhibition at 1 µM (DYRK4): 0%
- inhibition at 1 µM (SRC N1): 5%
- inhibition at 1 µM (CAMK2D (CaMKII delta)): -5%
- inhibition at 1 µM (SBK1): 6%
- inhibition at 1 µM (PHKG1): -1%
- inhibition at 1 µM (INSR): 10%
- inhibition at 1 µM (DAPK3 (ZIPK)): 2%
- inhibition at 1 µM (AXL): 1%
- inhibition at 1 µM (DYRK1A): 3%
- inhibition at 1 µM (RPS6KA3 (RSK2)): 10%
- inhibition at 1 µM (MET (cMet) Y1235D): 4%
- inhibition at 1 µM (AKT1 (PKB alpha)): 4%
